Experimental data: patent US3932650A, “Trans-octahydropyridoindolobenzazepines as central nervous system depressants” (E. I. Du Pont de Nemours & Company, priority 1973, dated 1976)
Read-outs that look alike come from different tables or passages of the source.

Key:
[1] = tested on: phenyl-p-benzoquinone-induced writhing; experiment: Phenylquinone Writhing (P.Q.W.); assay type: in vivo, mouse; details: po
[2] = tested on: catalepsy; experiment: Catalepsy, rat; assay type: in vivo; details: po, read-out: Catalepsy MED
Excerpt: (§1) The ability of an animal to remain in an abnormal position is used as another indication of central nervous system depressant activity. A test animal is removed from its observation cage and positioned so that its hind legs are on the table top and its front legs rest on the side of the observation cage. If an animal maintains this position for at least 10 seconds, it is considered to be showing cataleptic behavior.

[3] = tested on: locomotor activity; experiment: Decreased Locomotor Activity (L.M.A.), mouse; assay type: in vivo; details: po, read-out: L.M.A. MED
Description: (§2) Decreased Locomotor Activity (L.M.A.)
(§3) This reaction sign is measured subjectively by observing how an animal behaves when it is removed from an observation cage and placed on a table top. […] The degree of stimulation by the observer needed to produce active locomotion is rated on an arbitrary scale. This ranges from a score of -1 where only a slight touch of the animal's body is required to a -4 where the animal is unresponsive or minimally responsive to the application of a pain stimulus (pressure at the base of the tail). The minimal effective dose (MED) is the lowest oral dose producting an obvious decrease of locomotor activity (with a score of at least -1). Groups of 3 mice are given decreasing oral doses at 0.5 log intervals (300, 100, 30. . .etc.) until no behavioral effects are evident. Decrease of locomotor activity is indicative of general central nervous system depressant activity.

[4] = tested on: eyelid closure (ptosis); experiment: Ptosis, mouse; assay type: in vivo; details: po, read-out: Ptosis MED
[5] = tested on: eyelid closure (ptosis); experiment: Ptosis, rat; assay type: in vivo; details: po, read-out: Ptosis MED
Excerpt: Degree of eyelid closure is used as a measure of central nervous system depression. An animal is removed from its observation cage and allowed to remain outside the cage for 30 seconds. At the end of this time a rating of degree of eyelid closure is made on an arbitrary scale.

[6] = tested on: catalepsy; experiment: Catalepsy, mouse; assay type: in vivo; details: po, read-out: Catalepsy MED
Excerpt: as §1

[7] = tested on: locomotor activity; experiment: Decreased Locomotor Activity (L.M.A.), rat; assay type: in vivo; details: po, read-out: L.M.A. MED
Description: as §2, §3

[8] = tested on: taming; experiment: Rhesus Monkey Taming Effects; assay type: in vivo; details: Macaca mulatta, po, read-out: Taming MED
Description: Rhesus Monkey Taming Effects (Taming):
Results given in: mg/kg po/monkey
Compounds are administered orally to groups of 6 rhesus monkeys. The behavior of the animals is then evaluated by observational means. Taming effects are determined by the ability of the observer to approach and touch the monkey. Compounds with major tranquilizer activity in man can produce a state of passive tameness in the rhesus monkey wherein it can be touched without provoking any of the threatening or aggressive behavior seen in the normal animal. The MED is the minimal oral dose at which some taming effect can be observed.

[9] = tested on: conditioned avoidance response; experiment: Dog Conditioned Avoidance Response (C.A.R.); assay type: in vivo; details: Canis lupus familiaris, po, read-out: C.A.R. ED50
Description: Dog Conditioned Avoidance Response (C.A.R.):
Results given in: mg/kg po/dog
Dogs are trained to raise a forelimb when presented with a conditioned stimulus (light) in order to avoid an electric shock. Blocks of 10 trials are given to groups of 4 dogs during a pretreatment period and at 1, 2, and 4 hours after oral administration of the test compound. The ED50 values are calculated as the dose causing 50% of the animals to show 5 or more incorrect responses. Blocking of the C.A.R. at non-toxic doses appears to correlate with major tranquilizer activity in man.

[10] = tested on: fear / feeding in approach-avoidance conflict; experiment: Rat Conflict (Approach-Avoidance) Test; assay type: in vivo; details: po, read-out: Conflict MED
Description: Rat Conflict (Approach-Avoidance) Test (Conflict)
Results given in: mg/kg po/rat
Food deprived rats are trained to pass from one compartment to an adjacent one to obtain food. The training consists of 3 exposures to the test situation on day one of the experiment. The rats are given limited (1-2 hr) free access to food in their home cages on day one and are then food deprived for at least 18 hours. On day two of the experiment, the rats are given a control exposure to the test situation followed by a second exposure after one-half to 1 hour in which they are shocked after crossing and eating. Groups of 6-8 rats are then dosed orally with solvent or test compound and then re-exposed to the test situation after 1 or 2 hours.
Compounds showing minor tranquilizer (anxiolytic) activity in man such as diazepam and meprobamate produce an apparent decreased fear in the test animals so that they cross to obtain food despite having received a shock earlier. This effect is dose-related (and the MED is the minimum dose at which this effect is obtained); rats dosed with solvent only consistently show a high level of fear as evidenced by decreased mobility and absence of feeding when placed in the test situation after receiving a shock.

[11] = tested on: TBZ-induced ptosis; experiment: Tetrabenazine Antagonism (T.B.Z.A.), mouse; assay type: in vivo; details: 1 h, po, read-out: T.B.Z.A. ED50
Description: (§4) Tetrabenazine Antagonism (T.B.Z.A.)
(§5) The tetrabenazine (TBZ) antagonism test is used to test for potential antidepressant-like activity in rodents. One hour after oral administration of a test compound, a 40 mg/kg dose of TBZ is given subcutaneously. Thirty minutes after TBZ administration, the mice are placed in the center of a circle; the diameter of the circle is twice the body length of the mouse or rat. After 30 seconds, a reading is made of the degree of ptosis and whether the animal has moved out of the circle. Animals that have received only TBZ will show marked ptosis and immobility. Tricyclic antidepressants of the imipramine type will antagonize the ptosis but not the immobility. Antidepressants of the amphetamine or monoamine oxidase inhibitory type will antagonize both the ptosis and immobility induced by TBZ. The ED50 is the dose producing antagonism of TBZ-induced ptosis, but not of TBZ-induced immobility, in 50% of the animals.

[12] = tested on: TBZ-induced ptosis; experiment: Tetrabenazine Antagonism (T.B.Z.A.), rat; assay type: in vivo; details: 1 h, po, read-out: T.B.Z.A. ED50
Description: as §4, §5

[13] = tested on: conditioned avoidance response; experiment: Conditioned Avoidance Response (C.A.R.), rat; assay type: in vivo; details: po, read-out: C.A.R. ED50
Description: (§6) Mouse and Rat Conditioned Avoidance Response (C.A.R.):
(§7) Mice and rats are trained to jump out of a pit onto a ledge to avoid shock when presented with a light and sound conditioned stimulus. The animals are tested 1, 2, and 4 hours after administration of the test compound. Three to four dose levels and groups of 4-8 animals/dose are used. The ED50 is the dose producing a block of the C.A.R. in 50% of the animals. Blocking of the C.A.R. at non-toxic doses appears to correlate with major tranquilizer activity in man.

[14] = tested on: conditioned avoidance response; experiment: Conditioned Avoidance Response (C.A.R.), mouse; assay type: in vivo; details: po, read-out: C.A.R. ED50
Description: as §6, §7

[15] = 0.5 h, mouse, phenyl-p-benzoquinone 2.5 mg/kg i.p. 30 minutes after compound, read-out: P.Q.W. ED50
[16] = dog, 5 or more incorrect responses in 50% of animals, 1, 2, and 4 hours
[17] = mouse, TBZ 40 mg/kg s.c. one hour after compound
[18] = rat, TBZ 40 mg/kg s.c. one hour after compound
[19] = rat, block of C.A.R. in 50% of animals, 1, 2, and 4 hours
[20] = mouse, block of C.A.R. in 50% of animals, 1, 2, and 4 hours

Structure (SMILES) | ED50 [1, 15] | minimal effective dose ([2]; rat) | minimal effective dose ([3]; mouse, minimal effective dose) | minimal effective dose ([4]; mouse, passive ptosis) | minimal effective dose ([5]; rat, passive ptosis) | minimal effective dose ([6]; mouse) | minimal effective dose ([7]; minimal effective dose) | other results
c1ccc(CCN2CC[C@H]3[C@H](C2)c2cccc4c2N3c2ccccc2CC4)cc1 (relative stereo) [phenethyl, trans-1,2,3,4,4a,8,9,14a-octahydro-3-phenethylpyrido[4',3+:2,3]indolo[1,7-ab][1]benzazepine] | 4.7 mg/kg | – | – | – | – | – | – | –
Cl.c1ccc2c(c1)CCc1cccc3c1N2[C@@H]1CCN(CC2CCCC2)C[C@@H]31 (relative stereo) [cyclopentylmethyl, trans-3-cyclopentylmethyl1,2,3,4,4a,8,9,14a-octahydropyrido[4',3':2,3]indolo[1,7-ab][1]benzazepine hydrochloride] | 2 mg/kg | – | – | – | – | – | – | –
c1ccc(CN2CC[C@@H]3[C@@H](C2)c2cccc4c2N3c2ccccc2CC4)cc1 (relative stereo) [Example 6, trans-3-Benzyl-1,2,3,4,4a,8,9,14a-octahydropyrido[4',3':2,3]indolo[1,7-ab][1]benzazepine] | 28 mg/kg | > 300 mg/kg | 2 mg/kg | 13 mg/kg | 150 mg/kg | 49 mg/kg | 65 mg/kg | –
COc1ccc2c3c1O[C@H]1[C@@H](O)C=C[C@H]4[C@@H](C2)N(C)CC[C@@]341 [Codeine phosphate] | – | – | – | – | – | – | – | ED50 ([1]; Mus musculus, read-out: Analgesic ED50): 19 mg/kg
CCN1CCc2c(c3cccc4c3n2-c2ccccc2CC4)C1 [ethyl hexahydro] | – | > 300 mg/kg | 30 mg/kg | 30 mg/kg | > 300 mg/kg | > 300 mg/kg | 30 mg/kg | minimal effective dose ([8]; rhesus monkey): > 20 mg/kg; ED50 [9, 16]: > 30 mg/kg; minimal effective dose ([10]; rat, after 1 or 2 hours): 20 mg/kg; ED50 [11, 17]: > 100 mg/kg; ED50 [12, 18]: > 100 mg/kg; ED50 [13, 19]: > 40 mg/kg; ED50 [14, 20]: > 40 mg/kg
CN1CCc2c(c3cccc4c3n2-c2ccccc2CC4)C1 [methyl hexahydro, 1,2,3,4,8,9-hexahydro-3-methylpyrido[4',3':2,3]indolo[1,7-ab][1]benzazepine] | – | 100 mg/kg | 10 mg/kg | 30 mg/kg | 30 mg/kg | 300 mg/kg | 30 mg/kg | minimal effective dose ([8]; rhesus monkey): 10 mg/kg; ED50 [9, 16]: > 30 mg/kg; minimal effective dose ([10]; rat, after 1 or 2 hours): 20 mg/kg; ED50 [11, 17]: > 100 mg/kg; ED50 [12, 18]: > 100 mg/kg; ED50 [13, 19]: 30 mg/kg; ED50 [14, 20]: 20 mg/kg
CC(=O)Oc1ccccc1C(=O)O [aspirin] | 94 mg/kg | – | – | – | – | – | – | –
c1ccc2c(c1)CCc1cccc3c4c(n-2c13)CCN(CC1CC1)C4 [(cyclopropylmethyl) hexahydro, 3-(cyclopropylmethyl)-1,2,3,4,8,9-hexahydropyrido[4',3':2,3]indolo[1,7-ab][1]benzazepine] | – | 30 mg/kg | 10 mg/kg | 30 mg/kg | 30 mg/kg | 30 mg/kg | 10 mg/kg | minimal effective dose ([8]; rhesus monkey): 3 mg/kg; ED50 [9, 16]: > 30 mg/kg; minimal effective dose ([10]; rat, after 1 or 2 hours): 10 mg/kg; ED50 [11, 17]: > 100 mg/kg; ED50 [12, 18]: > 100 mg/kg; ED50 [13, 19]: 40 mg/kg; ED50 [14, 20]: 20 mg/kg
c1ccc(CN2CCc3c(c4cccc5c4n3-c3ccccc3CC5)C2)cc1 [benzyl hexahydro, 3-benzyl-1,2,3,4,8,9-hexahydropyrido[4',3':2,3]indolo[1,7-ab][1] benzazepine] | – | > 300 mg/kg | ~200 mg/kg | > 300 mg/kg | > 300 mg/kg | > 300 mg/kg | > 300 mg/kg | –
c1ccc2c(c1)CCc1cccc3c1N2[C@H]1CCN(C[C@H]2[C@@H]4CCCC[C@@H]42)C[C@H]31 (relative stereo) [Example 7, trans-1,2,3,4,4a,8,9,14a-Octahydro-3-(exo-7-norcarylmethyl)pyrido[4',3':2,3] indolo[1,7-ab][1]benzazepine] | 14 mg/kg | 300 mg/kg | 3 mg/kg | 3 mg/kg | 3 mg/kg | 3 mg/kg | 3 mg/kg | –
CC(C)CN1CCc2c(c3cccc4c3n2-c2ccccc2CC4)C1 [isobutyl hexahydro] | – | – | ~60 mg/kg | ~60 mg/kg | – | ~60 mg/kg | – | –
COc1ccc2c3c1O[C@H]1[C@@H](O)C=C[C@H]4[C@@H](C2)N(C)CC[C@@]341 [codeine] | – | – | – | – | – | – | – | ED50 ([1]; Mus musculus, 0.5 h, read-out: P.Q.W. ED50): 19 mg/kg
CN1CC[C@H]2[C@@H](C1)c1cccc3c1N2c1ccccc1CC3 (relative stereo) [methyl octahydro cis] | – | – | – | – | – | – | – | minimal effective dose [8]: > 20 mg/kg; minimal effective dose ([2]; Rattus norvegicus): > 300 mg/kg; ED50 ([9]; 4 h): > 30 mg/kg; minimal effective dose ([10]; Rattus norvegicus): > 40 mg/kg; ED50 ([11]; Mus musculus): 15 mg/kg; ED50 ([12]; Rattus norvegicus): 7.4 mg/kg; minimal effective dose ([3]; Mus musculus): 30 mg/kg; ED50 ([13]; Rattus norvegicus, 4 h): > 40 mg/kg; minimal effective dose ([4]; Mus musculus): > 300 mg/kg; minimal effective dose ([5]; Rattus norvegicus): > 300 mg/kg; minimal effective dose ([6]; Mus musculus): > 300 mg/kg; minimal effective dose [7]: 30 mg/kg; ED50 ([14]; Mus musculus, 4 h): > 40 mg/kg
